Patent publication US9925235B2, “Tilapia piscidins for use in enhancement of wound healing” (Academia Sinica, priority 2015, dated 2018)
Peptide text beside a SMILES is read from it.

What was measured:
MRSA [1] = conditions: 24 h
[2] = In vivo toxicity of TP3, intramuscular injection, blood biochemistry; conditions: mice, i.m. 2 mg/mouse
Description: To determine the toxicity of TP3, TP3 was dissolved in phosphate-buffered saline (PBS; pH 7.4) and administered as intramuscular bolus injections in the left thigh (2 mg/mouse). […] To study the effect of treatment on biochemistry, mice (n=6 in each group) were treated with PBS (control). Blood samples (0.2 ml) were collected day 1, 3 and 6 after the final injection of TP3, and used to determine the serum levels of glutamic oxaloacetic transaminase (GOT), glutamic pyruvic transaminase (GPT), blood urea nitrogen (BUN), creatinine (CRE), total glucose (GLU), and creatine phosphokinase (CPK).

MRSA [3] = assay: Mouse model of MRSA sepsis, TP4; assay type: in vivo, Balb/c mice; conditions: for Mean ± SD count, Blood / Mean ± SD count, Liver / Mean ± SD count, Mesenteric lymph nodes / Mean ± SD count, Peritoneum / Mean ± SD count, Spleen: 48 hours after the last treatment; for survival rate: 8 days after MRSA infection, i.p. 10 min after MRSA, TP4 0.005 mg/g, vancomycin and methicillin 0.01 mg/g; for % lethality: monitored for 2 day after injection, MRSA 10^6 CFU i.p.
Description: (§1) Female Balb/c mice (6-8 weeks old) were injected intraperitoneally with 10^6 CFU MRSA per mouse. Ten minutes after MRSA injection, mice were injected intraperitoneally with vancomycin (0.01 mg/g mouse body weight), methicillin (0.01 mg/g mouse body weight), or TP4 (0.005 mg/g mouse body weight). In a second set of experiments, mice were given intraperitoneal injections of TP4 (0.005 mg/g mouse body weight) at 10, 60, 120, or 180 min after MRSA injection. Survival rate and status were recorded every 24 h for up to 192 h. To examine bacterial dissemination, mice were sacrificed at 48 h after injection with antibiotics or TP4, and the bacterial numbers in blood, peritoneum, spleen, liver, and mesenteric lymph nodes were recorded. Colony counts from the diluted bacterial solutions were expressed relative to those at the start of treatment. These experiments consisted of four groups, and each group contained 10 mice.
Infected mice were untreated, or treated with TP4, methicillin, or vancomycin via i.p. injection. Bacterial numbers in blood, peritoneum, spleen, liver, and mesenteric lymph nodes were subsequently recorded. Colony counts from the diluted bacterial solutions are expressed relative to those at the start of treatment. Each value represents the mean value from three determinations±standard deviation (SD).

MRSA [4] = assay: Mouse wound healing model, wound closure and microbial load, TP3; assay type: in vivo, Balb/c mice
Description: Female Balb/c mice (6-8 weeks old) were used for wound healing experiments. All mice were housed individually to prevent fighting and further damage to the wounds, and they were provided with food and water ad libitum. Mice were maintained on a 12 h light: dark cycle at room temperature, and acclimatized to the environment for at least a week before use in experiments. All researchers wore caps, sterile gloves, gowns, and shoe covers when handling mice. Hair was removed from the back of the mice by shaving, and a full thickness wound (1 cm in diameter) was then created in the exposed region. Each wound was inoculated with 50 μl of broth mix containing 10^6 cfu (colony forming units) of S. aureus. At 5 min after inoculation, 50 μl TP3 (2 mg/ml) in a total volume of 0.1 ml were applied. Thirty minutes after treatment, wounds were covered with Tegaderm (3M, St. Paul, Minn.) to maintain uniformity, and to prevent the mice from removing the treatments. Based on initial experiments, we examined the wounds at 0, 3, 5 and 19 days post-injury, so as not to disturb the infection. Such examinations captured the transitions from inflammatory to regenerative, and regenerative to resolving phases of wound healing. Animals were subsequently euthanized by CO2 inhalation and the wounds assessed. Four individuals in each group were examined at each time point for each experiment. Each wound was measured and then removed from the animal, with unwounded skin taken from the contralateral dorsum as a control. Each biopsy was bisected with three sections being used for tensiometry and histology, and two sections for quantitative determination of microbial load. Wound healing studies were repeated in triplicate.
Tracings were taken immediately after injury. For uncontaminated wounds, wound size was determined every second day. For contaminated wounds, mice were euthanized at days 3, 5, 19 and tracings of the wound edges were made. Wound areas were determined using the Macintosh Adobe Photoshop program, Histogram Analysis. The percentage of wound contraction was calculated as follows: % Wound contraction=(A0−At)/A0×100, where A0 is the original wound area, and At is the area of wound at the time of biopsy on every two days, accordingly.
Multidrug-resistant strains of Staphylococcus aureus commonly associated with human wound infections were selected to generate a polymicrobial solution. The MRSA strain is a clinical isolate from stool obtained from Taipei City Hospital (Heping Fuyou branch). The initial inoculum was prepared by culturing aerobic bacteria in Tryptic Soy Broth (TSB) overnight at 37° C. Broths were subsequently centrifuged at 1000 rpm for 15 min, and resuspended in TSB with 15% glycerol, or chopped meat extract with 15% glycerol (for aerobic bacteria). The concentration was adjusted to 10^6 cfu/50 μl, and stored at −80° C. Prior to wound application, […]

MRSA [5] = assay: Mouse model of MRSA sepsis, TP3; assay type: in vivo, Balb/c mice; conditions: for Mean ± SD count, Blood / Mean ± SD count, Liver / Mean ± SD count, Mesenteric lymph nodes / Mean ± SD count, Peritoneum / Mean ± SD count, Spleen: 48 h after injection; for survival rate: 8 days after MRSA infection, i.p. 10 min after MRSA, TP3 0.005 mg/g, vancomycin and methicillin 0.01 mg/g; for % lethality: monitored for 2 day after injection, MRSA 1 × 10^6 CFU i.p.
Description: as §1, with “weight), methicilin” for “weight), methicillin”, “or TP3” for “or TP4”, “of TP3” for “of TP4”, “injection. The survival” for “injection. Survival”, “or TP3,” for “or TP4,”, “contained 5” for “contained 10”

MRSA [6] = assay: Histology and IHC of wound tissue, TP3; assay type: in vivo, Balb/c mice; conditions: wounds
Description: Skin tissues were removed and fixed as previously described. In brief, the cryosections were fixed with 4% formaldehyde, and the tissue samples were stained with hematoxylin/eosin, Giemsa, or Gram stain. IHC was analyzed by three independent investigators. Images were taken using a BX-51 microscope (Olympus, Japan).

| Structure (SMILES) | Mean ± SD count, Blood (MRSA [3]) | Mean ± SD count, Liver (MRSA [3]) | Mean ± SD count, Mesenteric lymph nodes (MRSA [3]) | Mean ± SD count, Peritoneum (MRSA [3]) | Mean ± SD count, Spleen (MRSA [3]) | survival rate (MRSA [3]) [%] | % lethality (MRSA [3]) | Bacterial Count (MRSA [4]; day 0) | Bacterial Count (MRSA [4]; day 5) | Mean ± SD count, Blood (MRSA [5]) | Mean ± SD count, Liver (MRSA [5]) | Mean ± SD count, Mesenteric lymph nodes (MRSA [5]) | Mean ± SD count, Peritoneum (MRSA [5]) | Mean ± SD count, Spleen (MRSA [5]) | survival rate (MRSA [5]) [%] | % lethality (MRSA [5]) | further results |
| --- | --- | --- | --- | --- | --- | --- | --- | --- | --- | --- | --- | --- | --- | --- | --- | --- | --- |
| CC[C@H](C)[C@H](NC(=O)[C@H](CC(C)C)NC(=O)[C@H](CO)NC(=O)[C@H](Cc1c[nH]cn1)NC(=O)[C@@H](NC(=O)[C@H](Cc1c[nH]cn1)NC(=O)[C@H](CCCCN)NC(=O)CNC(=O)[C@@H](NC(=O)[C@H](CO)NC(=O)[C@H](Cc1ccccc1)NC(=O)[C@H](CC(C)C)NC(=O)CNC(=O)CNC(=O)[C@@H](NC(=O)[C@@H](NC(=O)[C@H](Cc1c[nH]cn1)NC(=O)[C@H](Cc1c[nH]cn1)NC(=O)[C@@H](NC(=O)[C@@H](N)Cc1ccccc1)[C@@H](C)CC)[C@@H](C)CC)[C@@H](C)CC)C(C)C)[C@@H](C)CC)C(=O)N[C@@H](Cc1c[nH]cn1)C(=O)NCC(=O)N[C@@H](Cc1c[nH]cn1)C(=O)O [TP3, Tilapia piscidin 3] (H-FIHHIIGGLFSVGKHIHSLIHGH-OH) | – | – | – | – | – | – | – | – | – | – | – | – | – | – | – | – | minimal inhibitory concentration (MIC) (MRSA [1]): > 3.9 µg/mL; BUN ([2]; day 1): 15.2 ± 2.4^A mg/dl; CPK ([2]; day 1): 114 ± 21.9^A U/l; GLU ([2]; day 1): 258.6 ± 28.2^AB mg/dl; GOT ([2]; day 1): 122.6 ± 25.7^C U/l; GPT ([2]; day 1): 71.3 ± 8.6^C U/l; BUN ([2]; day 3): 17.4 ± 2.3^A mg/dl; CPK ([2]; day 3): 88.3 ± 5.8^B U/l; GLU ([2]; day 3): 219.8 ± 8.2^A mg/dl; GOT ([2]; day 3): 47.3 ± 5.9^A U/l; GPT ([2]; day 3): 36.2 ± 2.7^AB U/l; BUN ([2]; day 6): 20.2 ± 1.8^AB mg/dl; CPK ([2]; day 6): 129 ± 15.3^AB U/l; GLU ([2]; day 6): 290.8 ± 53.5^B mg/dl; GOT ([2]; day 6): 46 ± 8.08^A U/l; GPT ([2]; day 6): 35 ± 5.9^AB U/l |
| COc1cccc(OC)c1C(=O)N[C@@H]1C(=O)N2[C@@H]1SC(C)(C)[C@@H]2C(=O)O [methicillin] | 4.1 × 10^7 ± 1.3 × 10^7B CFU/mL | 2.7 × 10^8 ± 3.3 × 10^8B CFU/mL | 4.1 × 10^7 ± 3 × 10^7C CFU/mL | 2.3 × 10^9 ± 2 × 10^9B CFU/mL | 1.5 × 10^8 ± 2.1 × 10^7B CFU/mL | 0 | 20^B % | 5.2 × 10^4 CFU/10 μl | Fatal | 5.8 × 10^7 ± 1.7 × 10^7B CFU/ml | 3.7 × 10^8 ± 8.1 × 10^7B CFU/ml | 6.4 × 10^7 ± 5.3 × 10^7B CFU/ml | 4.9 × 10^9 ± 2.2 × 10^9B CFU/ml | 9.5 × 10^8 ± 1.9 × 10^8B CFU/ml | 0 | 20^B % | – |
| CN[C@H](CC(C)C)C(=O)N[C@H]1C(=O)N[C@@H](CC(N)=O)C(=O)N[C@H]2C(=O)N[C@H]3C(=O)N[C@H](C(=O)N[C@H](C(=O)O)c4cc(O)cc(O)c4-c4cc3ccc4O)[C@H](O)c3ccc(c(Cl)c3)Oc3cc2cc(c3O[C@@H]2O[C@H](CO)[C@@H](O)[C@H](O)[C@H]2O[C@H]2C[C@](C)(N)[C@H](O)[C@H](C)O2)Oc2ccc(cc2Cl)[C@H]1O [vancomycin] | 8 × 10^4 ± 1.1 × 10^4B CFU/mL | 1.3 × 10^7 ± 1.8 × 10^3B CFU/mL | 1 × 10^7 ± 4 × 10^4B CFU/mL | 1.5 × 10^6 ± 1 × 10^3A CFU/mL | 1.4 × 10^7 ± 1.1 × 10^4B CFU/mL | 80 | 10^AB % | 4.9 × 10^4 CFU/10 μl | 2.6 × 10^3 CFU/10 μl | 8 × 10^3 ± 1.3 × 10^5B CFU/ml | 1.7 × 10^8 ± 3.8 × 10^7B CFU/ml | 2 × 10^8 ± 4.4 × 10^6A CFU/ml | 2.7 × 10^9 ± 1.5 × 10^9A CFU/ml | 1.8 × 10^3 ± 8.4 × 10^7B CFU/ml | 80 | 0^A % | overall epidermal maturation compared to the TP3 group (MRSA [6]): displayed impairment in overall epidermal maturation; Bacterial Count (MRSA [4]; day 3): 3 × 10^5 CFU/10 μl; Bacterial Count (MRSA [4]; day 19): 42 CFU/10 μl |
